Experimental data reported in PMC7377239, “Cardiovascular Effects of Polychlorinated Biphenyls and Their Major Metabolites” (Environmental Health Perspectives, 2020).
Structures can show the parent of a compound that is named as a salt. Where two headings read alike, the source gives them in different places.

Tested on: iCell endothelial cells (human iPSC-derived ECs)
Assay: Tube formation (tubulogenesis) assay in iCell endothelial cells, 18 h
Format: cell-based
Conditions: Homo sapiens, Endothelial cell; for activity at 0.1 µM: 0.10 µM
Summary of the method: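 Tube formation was measured by calcein AM imaging after overnight compound exposure (37°C, 0.5% DMSO vehicle) of human iPSC-derived ECs, 7,500/well, on reduced-growth-factor Geltrex in starvation medium. Vehicle-normalized data fitted to four-parameter logistic; POD set at one vehicle SD; without response, 100 μM taken as NOAEL.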

[1] = iPSC-EC, 0.00 µM = 100.00, read-out: endo.mtl.18hr
[2] = iPSC-EC, 0.00 µM = 100.00, read-out: endo.tlps.18hr
[3] = iPSC-EC, 0.00 µM = 100.00, read-out: endo.tta.18hr
[4] = iPSC-EC, 0.00 µM = 100.00, read-out: endo.ttl.18hr
[5] = endothelial cells (endo), tube formation mtl, 18 hr, read-out: POD endo.mtl.18hr
[6] = endothelial cells (endo), tube formation tlps, 18 hr, read-out: POD endo.tlps.18hr
[7] = endothelial cells (endo), tube formation tta, 18 hr, read-out: POD endo.tta.18hr
[8] = endothelial cells (endo), tube formation ttl, 18 hr, read-out: POD endo.ttl.18hr
[9] = iPSC-EC tube formation, 18 hr, 0.00 µM control = 100.00, read-out: endo.mtl.18hr
[10] = iPSC-EC tube formation, 18 hr, 0.00 µM control = 100.00, read-out: endo.tlps.18hr
[11] = iPSC-EC tube formation, 18 hr, 0.00 µM control = 100.00, read-out: endo.tta.18hr
[12] = iPSC-EC tube formation, 18 hr, 0.00 µM control = 100.00, read-out: endo.ttl.18hr
[13] = iPSC-EC tube formation, 18 hr, top concentration 100.00 µM, read-out: endo.mtl.18hr POD
[14] = iPSC-EC tube formation, 18 hr, top concentration 100.00 µM, read-out: endo.tlps.18hr POD
[15] = iPSC-EC tube formation, 18 hr, top concentration 100.00 µM, read-out: endo.tta.18hr POD
[16] = iPSC-EC tube formation, 18 hr, top concentration 100.00 µM, read-out: endo.ttl.18hr POD

Molecule COc1cc(Cl)c(-c2cc(Cl)ccc2Cl)cc1Cl [4-OMe PCB52] has an activity at 0.01 µM [1] of 120%, an activity at 0.01 µM [2] of 104% and an activity at 0.01 µM [3] of 141%. It also gave an activity at 0.01 µM [4] of 150%, an activity at 0.1 µM [1] of 112% and an activity at 0.1 µM [2] of 113%. The activity at 0.1 µM [3] was 116%, the activity at 0.1 µM [4] was 123% and the activity at 1 µM [1] was 119%. The activity at 1 µM [2] was 114%, the activity at 1 µM [3] was 121% and the activity at 1 µM [4] was 132%. For the same molecule, the activity at 10 µM [1] was 114%, the activity at 10 µM [2] was 131% and the activity at 10 µM [3] was 136%. It also gave an activity at 10 µM [4] of 142%, an activity at 100 µM [1] of 49.4% and an activity at 100 µM [2] of 15.9%. For the same molecule, the activity at 100 µM [3] was 6.4%, the activity at 100 µM [4] was 8.34% and the minimal effective concentration (iPSC-EC, 100.00 = highest concentration tested, read-out: endo.mtl.18hr POD) was 52 µM. It also gave a minimal effective concentration (iPSC-EC, 100.00 = highest concentration tested, read-out: endo.tlps.18hr POD) of 56 µM, a minimal effective concentration (iPSC-EC, 100.00 = highest concentration tested, read-out: endo.tta.18hr POD) of 51.6 µM and a minimal effective concentration (iPSC-EC, 100.00 = highest concentration tested, read-out: endo.ttl.18hr POD) of 54.7 µM.

In the case of COc1ccc(-c2cccc(Cl)c2)cc1Cl [4-OMe-PCB 11, 4-methoxy-3,3′-dichlorobiphenyl], the minimal effective concentration [5] was 100 µM, the minimal effective concentration [6] was 28.4 µM and the minimal effective concentration [7] was 0.00169 µM. For the same molecule, the minimal effective concentration [8] was 0.00197 µM.

For COc1cc(Cl)c(-c2cc(Cl)ccc2Cl)cc1Cl [4-OMe-PCB 52, 4-methoxy-2,2′,5,5′-tetrachlorobiphenyl], the minimal effective concentration [5] was 52 µM, the minimal effective concentration [6] was 56 µM and the minimal effective concentration [7] was 51.6 µM. The minimal effective concentration [8] was 54.7 µM.

O=S(=O)(O)Oc1ccc(-c2cccc(Cl)c2)cc1Cl [4-PCB 11 sulfate] was tested, and the minimal effective concentration [5] was 25.3 µM, the minimal effective concentration [6] was 12.7 µM and the minimal effective concentration [7] was 21 µM. It also gave a minimal effective concentration [8] of 25.6 µM.

O=S(=O)(O)Oc1cc(Cl)c(-c2cc(Cl)ccc2Cl)cc1Cl [4-PCB 52 sulfate] was tested, and the minimal effective concentration [5] was 7.44 µM, the minimal effective concentration [6] was 5.74 µM and the minimal effective concentration [7] was 8.83 µM. The minimal effective concentration [8] was 9.64 µM.

O=S(=O)(O)Oc1ccc(-c2cccc(Cl)c2)cc1Cl [4-yl PCB 11 sulfate] was tested, and the activity at 0.01 µM [9] was 107%, the activity at 0.01 µM [10] was 113% and the activity at 0.01 µM [11] was 174%. For the same molecule, the activity at 0.01 µM [12] was 179%, the activity at 0.1 µM [9] was 122% and the activity at 0.1 µM [10] was 98.8%. For the same molecule, the activity at 0.1 µM [11] was 119%, the activity at 0.1 µM [12] was 124% and the activity at 1 µM [9] was 113%. The activity at 1 µM [10] was 103%, the activity at 1 µM [11] was 124% and the activity at 1 µM [12] was 128%. The activity at 10 µM [9] was 94.3%, the activity at 10 µM [10] was 82.5% and the activity at 10 µM [11] was 91.7%. For the same molecule, the activity at 10 µM [12] was 93.7%, the activity at 100 µM [9] was 68.5% and the activity at 100 µM [10] was 27.8%. For the same molecule, the activity at 100 µM [11] was 26.5%, the activity at 100 µM [12] was 25.6% and the minimal effective concentration [13] was 25.3 µM. For the same molecule, the minimal effective concentration [14] was 12.7 µM, the minimal effective concentration [15] was 21 µM and the minimal effective concentration [16] was 25.6 µM.

O=S(=O)(O)Oc1cc(Cl)c(-c2cc(Cl)ccc2Cl)cc1Cl [4-yl PCB 52 sulfate] gave an activity at 0.01 µM [9] of 116%, an activity at 0.01 µM [10] of 87.8% and an activity at 0.01 µM [11] of 122%. For the same molecule, the activity at 0.01 µM [12] was 129%, the activity at 0.1 µM [9] was 108% and the activity at 0.1 µM [10] was 115%. It also gave an activity at 0.1 µM [11] of 115%, an activity at 0.1 µM [12] of 119% and an activity at 1 µM [9] of 109%. It also gave an activity at 1 µM [10] of 108%, an activity at 1 µM [11] of 112% and an activity at 1 µM [12] of 119%. The activity at 10 µM [9] was 73.9%, the activity at 10 µM [10] was 46.2% and the activity at 10 µM [11] was 70%. For the same molecule, the activity at 10 µM [12] was 71.1%, the activity at 100 µM [9] was 46.8% and the activity at 100 µM [10] was 10.1%. For the same molecule, the activity at 100 µM [11] was 0.18%, the activity at 100 µM [12] was 0.34% and the minimal effective concentration [13] was 7.44 µM. The minimal effective concentration [14] was 5.74 µM, the minimal effective concentration [15] was 8.83 µM and the minimal effective concentration [16] was 9.64 µM.

Oc1cc(Cl)cc(-c2cccc(Cl)c2)c1 [5-OH PCB 11] was tested, and the activity at 0.01 µM [9] was 117%, the activity at 0.01 µM [10] was 105% and the activity at 0.01 µM [11] was 155%. The activity at 0.01 µM [12] was 155%, the activity at 0.1 µM [9] was 102% and the activity at 0.1 µM [10] was 110%. The activity at 0.1 µM [11] was 125%, the activity at 0.1 µM [12] was 125% and the activity at 1 µM [9] was 109%. It also gave an activity at 1 µM [10] of 124%, an activity at 1 µM [11] of 134% and an activity at 1 µM [12] of 132%. For the same molecule, the activity at 10 µM [9] was 53.8%, the activity at 10 µM [10] was 26.9% and the activity at 10 µM [11] was 38.5%. The activity at 10 µM [12] was 37.3%, the activity at 100 µM [9] was 46.3% and the activity at 100 µM [10] was 12.3%. The activity at 100 µM [11] was 1.58%, the activity at 100 µM [12] was 2.12% and the minimal effective concentration [13] was 5.28 µM. It also gave a minimal effective concentration [14] of 5.71 µM, a minimal effective concentration [15] of 6.97 µM and a minimal effective concentration [16] of 7.34 µM.

Work on Oc1cc(Cl)cc(-c2cccc(Cl)c2)c1 [5-OH-PCB 11] yielded a minimal effective concentration [5] of 5.28 µM, a minimal effective concentration [6] of 5.71 µM and a minimal effective concentration [7] of 6.97 µM. For the same molecule, the minimal effective concentration [8] was 7.34 µM.
